According to patent EP0432983A2 (priority 1989, dated 1991):
≈ marks a conversion by molar mass, not a printed value.

Tests used:
[1] = system: HSV-1 (herpes simplex virus, type 1); assay: General anti-viral assay, HSV-1 in CV-1 cells (plaque reduction); format: cell-based; settings: Human alphaherpesvirus 1; CV-1/ HSV-1; read-out: IC50 µg/ml approx
[2] = system: A-549 (human lung carcinoma); assay: General anti-tumour assay, A-549; format: cell-based
Description: (§1) With compounds AH-3, AH-4 and AH-5, four general anti-tumour assays and two cytotoxicity assays were performed. Current screening protocols were employed using test substance diluted as above and at varying concentrations. Tests were performed against the tumour cells P-388 (mouse DBA/2 lymphoid neoplasm), A-549 (human lung carcinoma), HT-29 (human colon carcinoma) and MCF-7 (human breast carcinoma) and for the cytotoxicity assays against CV-1 (monkey kidney fibroblast) and BHK (Hamster kidney fibroblast).
(§2) Scoring is performed as follows: (-) no activity - the number of cells is equal to the control of growth, 0-40% cell inhibition (+) low activity - numbers of cells are reduced by approx 50-60% (++) good activity - numbers of cells are reduced by approx 70-90% (+++) very good activity - there is 100% cell inhibition [(+) is the approximate IC₅₀]

[3] = system: CV-1 (monkey kidney fibroblast); assay: Cytotoxicity assay, CV-1; format: cell-based
Description: as §1, §2

[4] = system: BHK (Hamster kidney fibroblast); assay: Cytotoxicity assay, BHK; format: cell-based
Description: as §1, §2

[5] = system: VSV (Vesicular Stomatitis Virus); assay: microbe, parasite or virus in culture; format: cell-based; settings: BHK, read-out: IC50 µg/ml approx
[6] = system: BHK cells
[7] = system: HT-29 (human colon carcinoma); assay: General anti-tumour assay, HT-29; format: cell-based
Description: as §1, §2

[8] = system: MCF-7 (human breast carcinoma); assay: General anti-tumour assay, MCF-7; format: cell-based
Description: as §1, §2

[9] = system: P-388 (mouse DBA/2 lymphoid neoplasm); assay: General anti-tumour assay, P-388; format: cell-based
Description: as §1, §2

CC(C)=CCCC(C)C1CCC(C)c2c1cc(C)c1c2OCO1 (stereo not drawn) [AH-4, Helioporin D]
IC50 [1]: > 40 µg/mL
activity (cell inhibition) ([2]; A-549, TEST CONC (µg) 0.2): - ((-) no activity - the number of cells is equal to the control of growth, 0-40% cell inhibition)
activity (cell inhibition) ([2]; A-549, TEST CONC (µg) 0.5): - ((-) no activity - the number of cells is equal to the control of growth, 0-40% cell inhibition)
activity (cell inhibition) ([2]; A-549, TEST CONC (µg) 1): - ((-) no activity - the number of cells is equal to the control of growth, 0-40% cell inhibition)
activity (cell inhibition) ([2]; A-549, TEST CONC (µg) 2): - ((-) no activity - the number of cells is equal to the control of growth, 0-40% cell inhibition)
activity (cell inhibition) ([2]; A-549, TEST CONC (µg) 5): - ((-) no activity - the number of cells is equal to the control of growth, 0-40% cell inhibition)
activity (cell inhibition) ([2]; A-549, TEST CONC (µg) 10): ++ ((++) good activity - numbers of cells are reduced by approx 70-90%)
activity (cell inhibition) ([2]; A-549, TEST CONC (µg) 20): ++ ((++) good activity - numbers of cells are reduced by approx 70-90%)
IC50 ([2]; Homo sapiens, A549, A-549, read-out: IC50 µg/ml approx): 5 to 10 µg/mL (≈ 15.9 to 31.8 µM)
activity (cell inhibition) ([3]; CV-1, TEST CONC (µg) 0.2): - ((-) no activity - the number of cells is equal to the control of growth, 0-40% cell inhibition)
activity (cell inhibition) ([3]; CV-1, TEST CONC (µg) 0.5): - ((-) no activity - the number of cells is equal to the control of growth, 0-40% cell inhibition)
activity (cell inhibition) ([3]; CV-1, TEST CONC (µg) 1): - ((-) no activity - the number of cells is equal to the control of growth, 0-40% cell inhibition)
activity (cell inhibition) ([3]; CV-1, TEST CONC (µg) 2): - ((-) no activity - the number of cells is equal to the control of growth, 0-40% cell inhibition)
activity (cell inhibition) ([3]; CV-1, TEST CONC (µg) 5): - ((-) no activity - the number of cells is equal to the control of growth, 0-40% cell inhibition)
activity (cell inhibition) ([3]; CV-1, TEST CONC (µg) 10): + ((+) low activity - numbers of cells are reduced by approx 50-60%)
activity (cell inhibition) ([3]; CV-1, TEST CONC (µg) 20): ++ ((++) good activity - numbers of cells are reduced by approx 70-90%)
IC50 ([3]; Primates, CV-1, read-out: IC50 µg/ml approx): ~10 µg/mL (≈ 31.8 µM)
IC50 ([4]; Mesocricetus auratus, read-out: IC50 µg/ml approx): 2 to 5 µg/mL (≈ 6.36 to 15.9 µM)
activity (cell inhibition) ([4]; TEST CONC (µg) 0.2): - ((-) no activity - the number of cells is equal to the control of growth, 0-40% cell inhibition)
activity (cell inhibition) ([4]; TEST CONC (µg) 0.5): - ((-) no activity - the number of cells is equal to the control of growth, 0-40% cell inhibition)
activity (cell inhibition) ([4]; TEST CONC (µg) 1): - ((-) no activity - the number of cells is equal to the control of growth, 0-40% cell inhibition)
activity (cell inhibition) ([4]; TEST CONC (µg) 2): - ((-) no activity - the number of cells is equal to the control of growth, 0-40% cell inhibition)
activity (cell inhibition) ([4]; TEST CONC (µg) 5): ++ ((++) good activity - numbers of cells are reduced by approx 70-90%)
activity (cell inhibition) ([4]; TEST CONC (µg) 10): +++ ((+++) very good activity - there is 100% cell inhibition)
activity (cell inhibition) ([4]; TEST CONC (µg) 20): +++ ((+++) very good activity - there is 100% cell inhibition)
IC50 [5]: > 40 µg/mL
cytotoxicity (inhibition zone on the cell sheet) [6]: 0-
activity (cell inhibition) ([7]; HT-29, TEST CONC (µg) 0.2): - ((-) no activity - the number of cells is equal to the control of growth, 0-40% cell inhibition)
activity (cell inhibition) ([7]; HT-29, TEST CONC (µg) 0.5): - ((-) no activity - the number of cells is equal to the control of growth, 0-40% cell inhibition)
activity (cell inhibition) ([7]; HT-29, TEST CONC (µg) 1): - ((-) no activity - the number of cells is equal to the control of growth, 0-40% cell inhibition)
activity (cell inhibition) ([7]; HT-29, TEST CONC (µg) 2): - ((-) no activity - the number of cells is equal to the control of growth, 0-40% cell inhibition)
activity (cell inhibition) ([7]; HT-29, TEST CONC (µg) 5): + ((+) low activity - numbers of cells are reduced by approx 50-60%)
activity (cell inhibition) ([7]; HT-29, TEST CONC (µg) 10): +++ ((+++) very good activity - there is 100% cell inhibition)
activity (cell inhibition) ([7]; HT-29, TEST CONC (µg) 20): +++ ((+++) very good activity - there is 100% cell inhibition)
IC50 ([7]; Homo sapiens, HT-29, read-out: IC50 µg/ml approx): ~5 µg/mL (≈ 15.9 µM)
IC50 ([8]; Homo sapiens, MCF7, MCF-7, read-out: IC50 µg/ml approx): ~10 µg/mL (≈ 31.8 µM)
activity (cell inhibition) ([8]; MCF-7, TEST CONC (µg) 0.2): - ((-) no activity - the number of cells is equal to the control of growth, 0-40% cell inhibition)
activity (cell inhibition) ([8]; MCF-7, TEST CONC (µg) 0.5): - ((-) no activity - the number of cells is equal to the control of growth, 0-40% cell inhibition)
activity (cell inhibition) ([8]; MCF-7, TEST CONC (µg) 1): - ((-) no activity - the number of cells is equal to the control of growth, 0-40% cell inhibition)
activity (cell inhibition) ([8]; MCF-7, TEST CONC (µg) 2): - ((-) no activity - the number of cells is equal to the control of growth, 0-40% cell inhibition)
activity (cell inhibition) ([8]; MCF-7, TEST CONC (µg) 5): - ((-) no activity - the number of cells is equal to the control of growth, 0-40% cell inhibition)
activity (cell inhibition) ([8]; MCF-7, TEST CONC (µg) 10): + ((+) low activity - numbers of cells are reduced by approx 50-60%)
activity (cell inhibition) ([8]; MCF-7, TEST CONC (µg) 20): ++ ((++) good activity - numbers of cells are reduced by approx 70-90%)
IC50 ([9]; Mus musculus, P388, P-388, read-out: IC50 µg/ml approx): ~2 µg/mL (≈ 6.36 µM)
activity (cell inhibition) ([9]; P-388, TEST CONC (µg) 0.2): - ((-) no activity - the number of cells is equal to the control of growth, 0-40% cell inhibition)
activity (cell inhibition) ([9]; P-388, TEST CONC (µg) 0.5): - ((-) no activity - the number of cells is equal to the control of growth, 0-40% cell inhibition)
activity (cell inhibition) ([9]; P-388, TEST CONC (µg) 1): - ((-) no activity - the number of cells is equal to the control of growth, 0-40% cell inhibition)
activity (cell inhibition) ([9]; P-388, TEST CONC (µg) 2): + ((+) low activity - numbers of cells are reduced by approx 50-60%)
activity (cell inhibition) ([9]; P-388, TEST CONC (µg) 5): ++ ((++) good activity - numbers of cells are reduced by approx 70-90%)
activity (cell inhibition) ([9]; P-388, TEST CONC (µg) 10): ++ ((++) good activity - numbers of cells are reduced by approx 70-90%)
activity (cell inhibition) ([9]; P-388, TEST CONC (µg) 20): ++ ((++) good activity - numbers of cells are reduced by approx 70-90%)
